From ChEMBL document CHEMBL1121709, “Importance of the aromatic ring in adrenergic amines. 6. Nonaromatic analogues of phenylethanolamine as inhibitors of phenylethanolamine N-methyltransferase: role of pi-electronic and steric interactions” (J Med Chem, 1981)

Key:
[1] = biological target: T1, Phenylethanolamine N-methyltransferase (Bos taurus, UniProt P10938); experiment: The compound was measured for the 50% inhibition of phenylethanolamine N-methyl-transferase
T1 sequence (P10938 whole entry): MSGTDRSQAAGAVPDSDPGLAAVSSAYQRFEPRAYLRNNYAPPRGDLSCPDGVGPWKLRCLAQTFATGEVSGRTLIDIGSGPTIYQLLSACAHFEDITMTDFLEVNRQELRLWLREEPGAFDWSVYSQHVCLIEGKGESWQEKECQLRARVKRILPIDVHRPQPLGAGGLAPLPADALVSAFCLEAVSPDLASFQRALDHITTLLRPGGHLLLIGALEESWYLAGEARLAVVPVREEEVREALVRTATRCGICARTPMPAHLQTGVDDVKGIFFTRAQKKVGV

[2] = biological target: T1, Phenylethanolamine N-methyltransferase; experiment: The compound was measured for the 50% inhibition of phenylethanolamine N-methyl-transferase; 50% inhibition was not achieved at 10e-3 M

SMILES | IC50 [1] [µM] | IC50 [2] [µM]
NCC(O)C12CC3C[C@H](C1)C[C@H](C3)C2 (stereo partly drawn) | 195 | –
NCC(O)C12C=CC(CC1)C2 (stereo not drawn) | – | > 1000
NCC(O)C1CCCCCCC1 (stereo not drawn) | 8 | –
NCC(O)C12CCC(CC1)C2 (stereo not drawn) | – | > 1000
NCC(O)C1CC2C=CC1C2 (stereo in doubt; 9) | 454 | –
NCC(O)C1CC2C=CC1C2 (stereo in doubt; 10) | 1100 | –
NCC(O)C1CC2CCC1C2 (stereo in doubt; 12) | 193 | –
NCC(O)C1CC2CCC1C2 (stereo in doubt; 13) | 475 | –
